# Experimental data published in US8691804B2 (Evotec AG, priority 2008, dated 2014).
# Biological target: T1, human H3 receptors (Homo sapiens, UniProt Q9Y5N1)
# T1 construct: host or cells: CHO-K1
# Experiment: cAMP quantification assay for human H3 receptor testing
# Type: cell-based
# Details: CHO-K1 cells expressing human H3 receptors; inhibition of agonist-induced decrease of cAMP; 100 nM histamine, 10 μM forskolin; read-out: Potency range (IC50 values)
# Summary of the method: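 CHO-K1 cells expressing human H3 (10,000/well) were preincubated 30 min at 37 °C with compound in PBS containing 1 mM IBMX and 0.03% BSA. They were then challenged 30 min with agonist solution (100 nM histamine plus 10 μM forskolin). cAMP was quantified by enzyme-complementation luminescence, with 8 concentrations in triplicate at 1% DMSO.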
# T1 sequence (Q9Y5N1 whole entry): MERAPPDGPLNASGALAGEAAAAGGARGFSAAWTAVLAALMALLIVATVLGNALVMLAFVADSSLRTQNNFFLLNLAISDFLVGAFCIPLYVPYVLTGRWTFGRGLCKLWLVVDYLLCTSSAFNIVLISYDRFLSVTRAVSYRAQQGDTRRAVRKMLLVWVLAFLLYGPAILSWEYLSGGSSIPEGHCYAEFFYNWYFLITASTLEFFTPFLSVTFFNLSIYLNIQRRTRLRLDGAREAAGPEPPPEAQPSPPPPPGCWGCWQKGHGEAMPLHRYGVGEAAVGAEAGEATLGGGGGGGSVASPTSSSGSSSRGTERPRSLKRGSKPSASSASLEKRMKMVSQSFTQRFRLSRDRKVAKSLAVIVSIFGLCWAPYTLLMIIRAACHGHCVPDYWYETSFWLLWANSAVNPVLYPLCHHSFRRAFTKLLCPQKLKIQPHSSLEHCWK
row,SMILES,IC50 [nM]
1,"CNC(=O)c1ccc(OC2CN(C(=O)N3CCCN(C(C)C)CC3)C2)cn1 [Example 114, 5-({1-[(4-(1-methylethyl)-1,4-diazepan-1-yl)carbonyl]azetidin-3-yl}oxy)-N-methylpyridine-2-carboxamide]",< 100
2,"O=C(C1CN(C(=O)N2CCCN(C3CCC3)CC2)C1)N1CCC1 [Example 126, 1-{[3-(azetidin-1-ylcarbonyl)azetidin-1-yl]carbonyl}-4-cyclobutyl-1,4-diazepane]",< 100
3,"O=C1CC(C(=O)N2CCCN(C3CCC3)CC2)C1 [Example 100, 3-[(4-cyclobutyl-1,4-diazepan-1-yl)carbonyl]cyclobutanone]",< 100
4,"Cc1cc(OC2CN(C(=O)N3CCCN(C4CCC4)CC3)C2)cc(C)n1 [Example 69, 1-cyclobutyl-4-({3-[(2,6-dimethylpyridin-4-yl)oxy]azetidin-1-yl}carbonyl)-1,4-diazepane]",< 100
5,"O=C(N1CCCN(C2CCC2)CC1)N1CC(Oc2ccc(Br)cn2)C1 [Example 22, 1-({3-[(5-bromopyridin-2-yl)oxy]azetidin-1-yl}carbonyl)-4-cyclobutyl-1,4-diazepane]",< 100
6,"O=C([C@H]1C[C@H](O)C1)N1CCCN(C2CCC2)CC1 [Example 105, trans-3-[(4-cyclobutyl-1,4-diazepan-1-yl)carbonyl]cyclobutanol]",< 100
7,"CCc1cnc(OC2CN(C(=O)N3CCCN(C4CCC4)CC3)C2)nc1 [Example 162, 1-cyclobutyl-4-({3-[(5-ethylpyrimidin-2-yl)oxy]azetidin-1-yl}carbonyl)-1,4-diazepane]",500 to 5000
8,"O=C(N1CCCN(C2CCC2)CC1)N1CC(Oc2ccc(C(F)(F)F)cn2)C1 [Example 11, 1-cyclobutyl-4-[(3-{[5-(trifluoromethyl)pyridin-2-yl]oxy}azetidin-1-yl)carbonyl]-1,4-diazepane]",< 100
9,"COCC1CN(C(=O)N2CCCN(C3CCC3)CC2)C1 [Example 148, 1-cyclobutyl-4-{[3-(methoxymethyl)azetidin-1-yl]carbonyl}-1,4-diazepane]",< 100
10,"CN(C(=O)C1CN(C(=O)N2CCCN(C3CCC3)CC2)C1)c1ccc(Cl)cc1 [Example 146, N-(4-chlorophenyl)-1-[(4-cyclobutyl-1,4-diazepan-1-yl)carbonyl]-N-methylazetidine-3-carboxamide]",< 100
11,"O=C(N1CCCN(C2CCC2)CC1)N1CC(Oc2ccccc2C(F)(F)F)C1 [Example 29, 1-cyclobutyl-4-({3-[2-(trifluoromethyl)phenoxy]azetidin-1-yl}carbonyl)-1,4-diazepane]",< 100
12,"CNC(=O)c1ccc(OC2CN(C(=O)N3CCCN(C4CCC4)CC3)C2)nc1 [Example 3, 6-({1-[(4-cyclobutyl-1,4-diazepan-1-yl)carbonyl]azetidin-3-yl}oxy)-N-methylpyridine-3-carboxamide]",< 100
13,"O=C(N1CCCN(C2CCC2)CC1)N1CC(Oc2cnccc2Cl)C1 [Example 48, 1-({3-[(4-chloropyridin-3-yl)oxy]azetidin-1-yl}carbonyl)-4-cyclobutyl-1,4-diazepane]",< 100
14,"Cc1ccc(N(C)C(=O)C2CN(C(=O)N3CCCN(C4CCC4)CC3)C2)cn1 [Example 145, 1-[(4-cyclobutyl-1,4-diazepan-1-yl)carbonyl]-N-methyl-N-(6-methylpyridin-3-yl)azetidine-3-carboxamide]",< 100
15,"COC1CN(C(=O)N2CCCN(C3CCC3)CC2)C1 [Example 96, 1-cyclobutyl-4-[(3-methoxyazetidin-1-yl)carbonyl]-1,4-diazepane]",< 100
16,"O=C(C1CN(C(=O)N2CCCN(C3CCC3)CC2)C1)N1CCC(F)(F)CC1 [Example 130, 1-cyclobutyl-4-({3-[(4,4-difluoropiperidin-1-yl)carbonyl]azetidin-1-yl}carbonyl)-1,4-diazepane]",< 100
17,"COc1cnc(OC2CN(C(=O)N3CCCN(C4CCC4)CC3)C2)nc1 [Example 120, 1-cyclobutyl-4-({3-[(5-methoxypyrimidin-2-yl)oxy]azetidin-1-yl}carbonyl)-1,4-diazepane]",< 100
18,"O=C1NCCc2cc(OC3CN(C(=O)N4CCCN(C5CCC5)CC4)C3)ccc21 [Example 116, 6-({1-[(4-cyclobutyl-1,4-diazepan-1-yl)carbonyl]azetidin-3-yl}oxy)-3,4-dihydroisoquinolin-1(2H)-one]",< 100
